Test results: ChEMBL document CHEMBL1201862, “PubChem BioAssay data set” (2004)
The source made the active and inactive calls.

Experiments:
[1] = target: Sphingosine 1-phosphate receptor 5 (Homo sapiens, UniProt Q9H228); experiment: Late stage counterscreen assay for S1P4 antagonists: Fluorescence dose response cell-based screening assay for antagonists of the Sphingosine 1-Phosphate Receptor 5 (S1P5). [Related pubchem assays (depositor defined):AID1510, AID1524, AID1692, AID1853, AID2332, AID489009, AID489017]; type: functional
[2] = target: Sphingosine 1-phosphate receptor 2 (Homo sapiens, UniProt O95136); experiment: Late stage counterscreen assay for S1P4 antagonists: Fluorescence dose response cell-based screening assay for antagonists of the Sphingosine 1-Phosphate Receptor 2 (S1P2). [Related pubchem assays (depositor defined):AID1510, AID1524, AID1692, AID1853, AID2332, AID489009, AID489017]; type: functional
[3] = target: Sphingosine 1-phosphate receptor 3 (Homo sapiens, UniProt Q99500); experiment: Late stage counterscreen assay for S1P4 antagonists: Fluorescence dose response cell-based screening assay for antagonists of the Sphingosine 1-Phosphate Receptor 3 (S1P3). [Related pubchem assays (depositor defined):AID1510, AID1524, AID1692, AID1853, AID2332, AID489009, AID489017]; type: functional
[4] = target: Sphingosine 1-phosphate receptor 1 (Homo sapiens, UniProt P21453); experiment: Late stage counterscreen assay for S1P4 antagonists: Fluorescence dose response cell-based screening assay for antagonists of the Sphingosine 1-Phosphate Receptor 1 (S1P1). [Related pubchem assays (depositor defined):AID1510, AID1524, AID1692, AID1853, AID2332, AID489009, AID489017]; type: functional
[5] = target: Dual specificity protein phosphatase 3 (Homo sapiens, UniProt P51452); experiment: SAR VHR1 Fluorescent Assay for In Vitro dose response studies Set 3. [Related pubchem assays (depositor defined):AID1654, AID1661, AID1878]; type: functional
[6] = target: T1, Microphthalmia-associated transcription factor (Homo sapiens, UniProt O75030); experiment: reducers of TRPM1 reporter luminescence, concentration series – cell-based, SK-MEL-5, cherry-picked, set 3, MITF inhibitor project, dose response (AID 493073); type: functional;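 further: SK-MEL-5 melanoma cells with luciferase driven by the MITF target TRPM1 promoter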
T1 sequence (O75030 whole entry): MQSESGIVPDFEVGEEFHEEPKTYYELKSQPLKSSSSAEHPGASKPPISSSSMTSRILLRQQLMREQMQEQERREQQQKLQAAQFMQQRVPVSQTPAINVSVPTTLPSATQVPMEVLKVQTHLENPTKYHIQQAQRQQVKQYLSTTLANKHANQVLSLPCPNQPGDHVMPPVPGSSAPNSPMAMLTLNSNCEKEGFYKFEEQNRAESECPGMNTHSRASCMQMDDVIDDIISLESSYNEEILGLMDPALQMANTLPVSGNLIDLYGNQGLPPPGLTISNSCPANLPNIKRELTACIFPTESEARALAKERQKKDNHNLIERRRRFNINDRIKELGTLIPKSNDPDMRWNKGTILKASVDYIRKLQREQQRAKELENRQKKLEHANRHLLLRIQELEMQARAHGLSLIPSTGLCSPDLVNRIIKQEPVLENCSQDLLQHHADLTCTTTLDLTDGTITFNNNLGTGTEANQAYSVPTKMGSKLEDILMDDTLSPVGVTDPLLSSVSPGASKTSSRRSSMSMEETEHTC

[7] = target: T2, Ubiquitin-conjugating enzyme E2 N (Homo sapiens, UniProt P61088); type: functional;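 further: Dose-response confirmation in a TR-FRET assay detecting UBC13-driven polyubiquitin chain formation, inhibition measured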
T2 sequence (P61088 whole entry): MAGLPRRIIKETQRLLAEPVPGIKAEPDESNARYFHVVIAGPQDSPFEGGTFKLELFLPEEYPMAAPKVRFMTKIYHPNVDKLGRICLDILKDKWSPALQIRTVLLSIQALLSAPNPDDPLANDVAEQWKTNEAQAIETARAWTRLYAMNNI

[8] = system: A-375; experiment: MITF: Counter assay: A375 proliferation Measured in Cell-Based System Using Plate Reader - 2084-03_Inhibitor_Dose_DryPowder_Activity. [Related pubchem assays (depositor defined):AID488944]; type: functional; conditions: Homo sapiens
[9] = target: T3, DNA repair protein RAD52 homolog (Homo sapiens, UniProt P43351); type: functional, biochemical
T3 sequence (P43351 whole entry): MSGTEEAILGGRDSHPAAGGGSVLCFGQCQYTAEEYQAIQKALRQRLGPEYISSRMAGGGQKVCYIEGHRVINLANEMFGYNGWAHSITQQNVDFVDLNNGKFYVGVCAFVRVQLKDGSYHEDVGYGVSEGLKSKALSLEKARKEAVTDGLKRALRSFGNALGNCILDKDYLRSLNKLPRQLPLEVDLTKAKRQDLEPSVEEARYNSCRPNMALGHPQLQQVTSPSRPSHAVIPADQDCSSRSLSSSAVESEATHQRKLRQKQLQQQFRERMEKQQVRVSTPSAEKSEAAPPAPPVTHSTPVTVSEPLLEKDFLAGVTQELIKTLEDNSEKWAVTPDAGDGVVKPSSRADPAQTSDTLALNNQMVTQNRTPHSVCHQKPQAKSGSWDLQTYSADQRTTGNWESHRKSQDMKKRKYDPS

[10] = system: Escherichia coli; experiment: microbe, parasite or virus in culture
[11] = system: Trypanosoma cruzi; experiment: anti-trypanosomal activity in host cells – cell-based, plate reader, dry powder, set 3, dose response (AID 493197); type: functional
[12] = NIH/3T3 cell viability loss – mouse embryonic fibroblasts, dry powder, set 2, cytotoxicity control, dose response (AID 493247); type: functional, cell-based; conditions: Fibroblast
[13] = T. cruzi infection blockers in NIH3T3 cells – beta-gal luminescence, NIH3T3 host cells, confirmation (AID 2630); type: functional, cell-based; conditions: Mus musculus
[14] = target: Apelin receptor (Homo sapiens, UniProt P35414); experiment: apelin receptor antagonists, arrestin read-out – cell-based, luminescent, enzyme-fragment complementation, selectivity assay for CCR6 antagonist project, SAR follow-up (AID 588359); type: functional
[15] = DRD fibroblast viability loss – cell-based, non-viral oncogenic, luminescence, dose response (AID 1934); type: functional; conditions: Homo sapiens
[16] = system: BJ; experiment: cells; type: functional, cell-based; conditions: Homo sapiens
[17] = Trypanosoma cruzi growth suppression in host cells – NIH3T3 host cells, beta-gal luminescence, confirmation (AID 2044); type: functional, cell-based;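 further: intracellular parasites grown in NIH/3T3 mouse fibroblasts as host cells; luminescent beta-galactosidase reporter signal from transgenic T. cruzi replicating inside host cells; inhibitors lower the luminescence signal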
[18] = system: BJ; experiment: BJ-TERT-LT-ST fibroblast viability loss – cell-based, RAS-independent, luminescence, dose response (AID 1935); type: functional; conditions: Homo sapiens;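 further: BJ fibroblasts immortalized with TERT plus LT and ST oncogenes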
[19] = target: Beta-galactosidase (Escherichia coli, UniProt Q8VNN2); experiment: detection-enzyme interference by beta-gal modulators – biochemical, E. coli enzyme, set 3, artefact control for CCR6 antagonist project, dose response (AID 504712); type: functional
[20] = HepG2 cell cytotoxicity, dose response, cytotoxicity control for non-replicating M. tuberculosis project (AID 489018); type: functional; conditions: Mycobacterium tuberculosis
[21] = target: Heat shock protein HSP 90-alpha (Homo sapiens, UniProt P07900); type: functional, organism-based
[22] = system: BJ; experiment: BJ-TERT fibroblast viability loss – cell-based, RAS-independent, luminescence, dose response (AID 1933); type: functional; conditions: Homo sapiens
[23] = cells; type: functional
[24] = target: T4, Replicative DNA helicase DnaB (Mycobacterium tuberculosis, UniProt P9WMR3); experiment: DnaB intein splicing inhibitors, dose response, biochemical, cell-free fluorescence (AID 449749); type: functional
T4 sequence (P9WMR3 whole entry): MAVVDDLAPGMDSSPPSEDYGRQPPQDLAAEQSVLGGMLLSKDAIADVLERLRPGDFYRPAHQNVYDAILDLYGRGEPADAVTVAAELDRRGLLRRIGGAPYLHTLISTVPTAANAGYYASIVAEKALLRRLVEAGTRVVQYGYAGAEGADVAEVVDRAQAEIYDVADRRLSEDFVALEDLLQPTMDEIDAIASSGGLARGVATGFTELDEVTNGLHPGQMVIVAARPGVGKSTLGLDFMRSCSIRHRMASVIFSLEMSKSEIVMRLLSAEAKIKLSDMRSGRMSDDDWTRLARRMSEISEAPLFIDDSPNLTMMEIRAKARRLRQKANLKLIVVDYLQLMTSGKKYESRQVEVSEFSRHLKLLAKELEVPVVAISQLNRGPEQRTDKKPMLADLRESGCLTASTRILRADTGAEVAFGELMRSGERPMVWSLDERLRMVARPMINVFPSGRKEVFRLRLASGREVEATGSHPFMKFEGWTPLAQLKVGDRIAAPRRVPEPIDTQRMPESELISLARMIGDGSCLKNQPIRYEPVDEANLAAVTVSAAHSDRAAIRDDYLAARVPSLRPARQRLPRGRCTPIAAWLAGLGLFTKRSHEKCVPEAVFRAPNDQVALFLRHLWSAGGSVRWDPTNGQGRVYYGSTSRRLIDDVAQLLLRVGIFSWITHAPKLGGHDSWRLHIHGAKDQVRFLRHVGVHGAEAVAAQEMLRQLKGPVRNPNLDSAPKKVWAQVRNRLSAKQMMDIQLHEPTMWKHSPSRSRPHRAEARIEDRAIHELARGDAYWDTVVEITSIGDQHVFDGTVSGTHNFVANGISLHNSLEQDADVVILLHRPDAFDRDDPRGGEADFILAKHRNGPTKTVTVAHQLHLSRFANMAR

[25] = target: T5, Protein RecA (Mycobacterium tuberculosis, UniProt P9WHJ3); experiment: Fluorescence Cell-Free Homogeneous Dose Retest to Identify Inhibitors of RecA-Intein Splicing Activity. [Related pubchem assays (depositor defined):AID2097, AID2223, AID489010, AID492950]; type: functional
T5 sequence (P9WHJ3 whole entry): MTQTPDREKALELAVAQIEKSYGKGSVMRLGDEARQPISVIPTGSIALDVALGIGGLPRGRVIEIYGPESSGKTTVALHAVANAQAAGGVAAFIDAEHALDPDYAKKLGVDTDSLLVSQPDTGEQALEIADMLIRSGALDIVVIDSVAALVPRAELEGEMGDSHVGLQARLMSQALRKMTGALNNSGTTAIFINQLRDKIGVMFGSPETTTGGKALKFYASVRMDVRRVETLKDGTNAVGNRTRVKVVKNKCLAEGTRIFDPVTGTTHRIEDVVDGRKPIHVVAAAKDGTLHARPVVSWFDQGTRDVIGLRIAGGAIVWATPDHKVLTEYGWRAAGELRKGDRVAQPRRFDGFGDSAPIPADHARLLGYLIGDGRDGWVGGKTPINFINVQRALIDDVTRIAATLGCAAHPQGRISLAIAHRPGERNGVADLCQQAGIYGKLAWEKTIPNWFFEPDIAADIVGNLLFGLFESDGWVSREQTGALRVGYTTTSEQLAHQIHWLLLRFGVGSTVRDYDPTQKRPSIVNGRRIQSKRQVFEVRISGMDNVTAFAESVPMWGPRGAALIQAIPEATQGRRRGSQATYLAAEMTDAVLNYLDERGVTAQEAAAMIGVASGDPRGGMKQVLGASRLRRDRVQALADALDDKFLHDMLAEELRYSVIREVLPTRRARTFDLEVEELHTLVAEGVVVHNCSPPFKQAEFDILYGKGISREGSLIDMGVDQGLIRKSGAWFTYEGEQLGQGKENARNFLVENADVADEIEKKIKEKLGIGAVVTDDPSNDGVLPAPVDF

[26] = NIH3T3 cell viability loss – ATP luminescence, mouse fibroblasts, counter-screen, dose response (AID 2010); type: functional, cell-based;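 further: cells exposed to compound for about 90 hours before reading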
[27] = target: Beta-2 adrenergic receptor (Homo sapiens, UniProt P07550); experiment: ADRB2 activation measured by internalization – cell-based, FAP fluorogen, flow cytometry, cherry pick 1, dose response (AID 588763); type: functional
[28] = Vero E6 cell cytotoxicity, dose response, cytotoxicity control for non-replicating M. tuberculosis project, secondary assay (AID 492998); type: functional, VeroE6; conditions: Vero C1008
[29] = THP-1 cell cytotoxicity, dose response, cytotoxicity control for non-replicating M. tuberculosis project (AID 489025); type: functional

Sequence of Apelin receptor (P35414 whole entry, the tested form may be a part): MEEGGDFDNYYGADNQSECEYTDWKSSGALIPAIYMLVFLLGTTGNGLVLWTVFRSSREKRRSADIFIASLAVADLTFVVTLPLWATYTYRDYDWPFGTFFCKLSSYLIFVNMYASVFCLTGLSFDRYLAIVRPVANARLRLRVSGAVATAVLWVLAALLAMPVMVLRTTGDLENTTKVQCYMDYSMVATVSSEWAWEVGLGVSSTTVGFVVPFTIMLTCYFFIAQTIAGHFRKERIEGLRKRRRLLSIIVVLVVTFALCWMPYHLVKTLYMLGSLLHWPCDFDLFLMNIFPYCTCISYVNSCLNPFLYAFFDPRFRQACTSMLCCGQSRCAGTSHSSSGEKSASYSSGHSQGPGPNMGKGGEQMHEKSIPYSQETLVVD
Sequence of Sphingosine 1-phosphate receptor 2 (O95136 whole entry): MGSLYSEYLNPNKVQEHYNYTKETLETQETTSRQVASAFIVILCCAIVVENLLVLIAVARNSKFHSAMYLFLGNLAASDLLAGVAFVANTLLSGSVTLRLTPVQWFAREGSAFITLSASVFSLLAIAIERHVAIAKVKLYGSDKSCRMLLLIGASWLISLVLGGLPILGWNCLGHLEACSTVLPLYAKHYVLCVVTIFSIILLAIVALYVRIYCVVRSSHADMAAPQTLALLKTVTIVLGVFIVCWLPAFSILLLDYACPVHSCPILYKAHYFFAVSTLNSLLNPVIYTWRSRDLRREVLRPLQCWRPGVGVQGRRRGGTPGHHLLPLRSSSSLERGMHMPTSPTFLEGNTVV
Sequence of Dual specificity protein phosphatase 3 (P51452 whole entry): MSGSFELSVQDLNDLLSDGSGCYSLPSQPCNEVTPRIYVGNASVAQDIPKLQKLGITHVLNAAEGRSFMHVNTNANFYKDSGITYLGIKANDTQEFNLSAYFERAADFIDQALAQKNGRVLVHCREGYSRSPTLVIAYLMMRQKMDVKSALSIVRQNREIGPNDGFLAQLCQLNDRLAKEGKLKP
Sequence of Beta-2 adrenergic receptor (P07550 whole entry): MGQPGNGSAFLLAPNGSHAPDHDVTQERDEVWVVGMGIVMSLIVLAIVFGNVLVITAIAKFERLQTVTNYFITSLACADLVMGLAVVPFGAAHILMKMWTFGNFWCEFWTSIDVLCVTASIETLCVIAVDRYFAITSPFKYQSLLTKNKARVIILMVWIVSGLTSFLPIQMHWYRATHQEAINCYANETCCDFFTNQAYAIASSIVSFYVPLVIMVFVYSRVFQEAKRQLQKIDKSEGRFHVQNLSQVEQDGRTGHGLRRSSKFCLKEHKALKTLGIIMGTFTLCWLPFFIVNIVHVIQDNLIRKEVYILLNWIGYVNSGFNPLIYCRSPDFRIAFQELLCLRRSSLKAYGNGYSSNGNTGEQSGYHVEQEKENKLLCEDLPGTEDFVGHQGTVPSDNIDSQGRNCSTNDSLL
Sequence of Sphingosine 1-phosphate receptor 3 (Q99500 whole entry): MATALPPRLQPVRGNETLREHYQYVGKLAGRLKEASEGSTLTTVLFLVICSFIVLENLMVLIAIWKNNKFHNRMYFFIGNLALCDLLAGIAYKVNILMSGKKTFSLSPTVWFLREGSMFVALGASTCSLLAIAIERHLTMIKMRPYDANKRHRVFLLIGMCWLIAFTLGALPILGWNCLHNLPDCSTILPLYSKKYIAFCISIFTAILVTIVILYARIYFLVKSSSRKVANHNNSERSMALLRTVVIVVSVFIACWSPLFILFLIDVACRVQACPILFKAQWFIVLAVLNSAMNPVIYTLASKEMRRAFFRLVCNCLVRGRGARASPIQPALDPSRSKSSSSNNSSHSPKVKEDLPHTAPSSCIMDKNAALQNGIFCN
Sequence of Sphingosine 1-phosphate receptor 1 (P21453 whole entry): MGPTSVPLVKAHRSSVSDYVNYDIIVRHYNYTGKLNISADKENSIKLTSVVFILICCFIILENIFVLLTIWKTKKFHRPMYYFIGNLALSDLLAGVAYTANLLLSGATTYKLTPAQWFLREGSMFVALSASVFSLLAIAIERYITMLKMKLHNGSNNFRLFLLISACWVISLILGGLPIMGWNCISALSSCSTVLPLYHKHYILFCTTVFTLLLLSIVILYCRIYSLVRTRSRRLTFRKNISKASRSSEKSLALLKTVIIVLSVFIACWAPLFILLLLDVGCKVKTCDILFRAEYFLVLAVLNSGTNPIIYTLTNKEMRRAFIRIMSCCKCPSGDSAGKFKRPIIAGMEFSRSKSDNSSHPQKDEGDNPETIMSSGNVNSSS
Sequence of Sphingosine 1-phosphate receptor 5 (Q9H228 whole entry): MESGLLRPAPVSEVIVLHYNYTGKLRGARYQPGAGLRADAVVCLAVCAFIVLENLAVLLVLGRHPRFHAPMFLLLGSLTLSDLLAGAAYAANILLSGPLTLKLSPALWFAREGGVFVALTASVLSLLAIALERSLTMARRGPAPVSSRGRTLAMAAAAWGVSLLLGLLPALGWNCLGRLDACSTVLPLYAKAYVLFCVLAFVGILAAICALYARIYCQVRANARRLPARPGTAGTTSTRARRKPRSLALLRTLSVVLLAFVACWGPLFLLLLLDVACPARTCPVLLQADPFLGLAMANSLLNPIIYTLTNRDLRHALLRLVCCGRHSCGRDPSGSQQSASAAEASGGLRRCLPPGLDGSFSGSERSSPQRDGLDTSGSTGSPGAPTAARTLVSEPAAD
Sequence of Beta-galactosidase (Q8VNN2 whole entry): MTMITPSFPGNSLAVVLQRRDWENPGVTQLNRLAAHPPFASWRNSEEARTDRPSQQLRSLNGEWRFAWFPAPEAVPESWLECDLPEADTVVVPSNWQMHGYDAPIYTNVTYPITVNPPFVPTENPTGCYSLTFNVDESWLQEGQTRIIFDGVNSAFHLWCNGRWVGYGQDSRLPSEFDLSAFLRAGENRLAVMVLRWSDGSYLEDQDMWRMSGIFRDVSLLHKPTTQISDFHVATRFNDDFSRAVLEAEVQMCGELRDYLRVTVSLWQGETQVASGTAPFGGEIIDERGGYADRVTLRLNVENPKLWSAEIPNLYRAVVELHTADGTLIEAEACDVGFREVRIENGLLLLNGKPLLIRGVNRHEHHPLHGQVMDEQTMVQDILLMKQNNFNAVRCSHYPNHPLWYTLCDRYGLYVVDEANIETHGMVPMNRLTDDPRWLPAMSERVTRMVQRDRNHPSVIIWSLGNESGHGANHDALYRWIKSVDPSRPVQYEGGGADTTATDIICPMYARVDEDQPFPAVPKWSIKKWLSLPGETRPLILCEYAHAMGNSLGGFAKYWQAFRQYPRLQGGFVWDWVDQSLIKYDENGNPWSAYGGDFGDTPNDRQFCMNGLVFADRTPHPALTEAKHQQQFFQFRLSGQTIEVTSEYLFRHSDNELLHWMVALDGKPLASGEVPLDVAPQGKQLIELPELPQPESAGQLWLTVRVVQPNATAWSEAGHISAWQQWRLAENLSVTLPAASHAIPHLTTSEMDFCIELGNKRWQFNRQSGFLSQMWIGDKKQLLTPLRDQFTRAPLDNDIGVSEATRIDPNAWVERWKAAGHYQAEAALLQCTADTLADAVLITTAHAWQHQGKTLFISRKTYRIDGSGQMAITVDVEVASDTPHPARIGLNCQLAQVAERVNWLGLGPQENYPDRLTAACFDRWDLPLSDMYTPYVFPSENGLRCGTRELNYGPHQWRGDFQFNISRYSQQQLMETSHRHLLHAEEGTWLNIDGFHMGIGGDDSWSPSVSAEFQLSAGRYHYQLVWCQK

Cc1cccc(Cl)c1NC(=O)c1ccc(-c2cc(Cl)ccc2Cl)o1
IC50 [1]: > 25 µM (inactive) | IC50 [2]: 9.5 µM (active) | IC50 [3]: > 25 µM (inactive) | IC50 [4]: > 25 µM (inactive)

CCOc1cccc2sc(NC(=O)c3ccc(OC)cc3)nc12
IC50 [5]: 51.7 µM (active)

CN1CCC(N(C)C(=O)/C=C/c2cn(-c3ccccc3)nc2-c2cccs2)CC1
AC50 [6]: 9.82 µM (active) | IC50 [7]: > 20 µM (inactive) | AC50 [8]: 30.5 µM (active) | AC50 [9]: 12.2 µM (active)

COC(=O)c1cnc(NNS(=O)(=O)c2ccc(C(F)(F)F)cc2)nc1C(F)(F)F
AC50 [10]: > 380 µM (inactive)

CN(Cc1ccccc1)C(=O)C1CCCN(Cc2ccccc2C(F)(F)F)C1 (centres undefined)
AC50 [11]: 15.9 µM (active) | AC50 [12]: 63.3 µM (active) | EC50 [13]: 4.64 µM (active)

O=[N+]([O-])c1ccc(S(=O)(=O)c2cccc(C(F)(F)F)c2)nc1
IC50 [14]: 18.8 µM (active) | EC50 [15]: 6.52 µM (active) | EC50 [16]: 12.1 µM (inconclusive) | EC50 [17]: 0.913 µM (active) | EC50 [18]: 10.8 µM (inconclusive) | IC50 [19]: > 66.6 µM (inactive) | CC50 [20]: > 20 µM (active) | AC50 [21]: 1.84 µM (active) | EC50 [22]: 2.55 µM (inconclusive) | IC50 [23]: 3.47 µM (active) | AC50 [24]: > 380 µM (inactive) | EC50 [25]: 14.2 µM (active) | EC50 [26]: 2.06 µM (active) | EC50 [27]: 7.62 µM (inactive) | CC50 [28]: 14.8 µM (active) | CC50 [29]: 28.8 µM (active)
